Data published in the NIST ThermoML archive (doi:10.1021/je4001894).
± gives the expanded uncertainty stated by the source.

Experiments:
[1] = 101.33 kPa, Liquid, Vibrating tube method
[2] = activity coefficient (dimensionless); of the first substance listed, at infinite dilution; xn = mol fraction of the nth substance listed; details: 101 kPa, Liquid, Chromatography, x1 = 0

Structure (SMILES)	mass density ([1]; 293.15 K) [kg/m3]	mass density ([1]; 303.15 K) [kg/m3]	mass density ([1]; 313.15 K) [kg/m3]	mass density ([1]; 323.15 K) [kg/m3]	mass density ([1]; 333.15 K) [kg/m3]	activity coefficient ([2]; 323.15 K)	activity coefficient ([2]; 333.15 K)	activity coefficient ([2]; 343.15 K)
CCCC[N+]1(C)CCCC1.O=S(=O)([N-]S(=O)(=O)C(F)(F)F)C(F)(F)F	1397.4 ± 0.6	1389.2 ± 0.6	1381.1 ± 0.6	1372.7 ± 0.6	1364.1 ± 0.6	–	–	–
CCC[N+]1(C)CCCC1.O=S(=O)([N-]S(=O)(=O)C(F)(F)F)C(F)(F)F	1430.1 ± 0.6	1421.8 ± 0.6	1412.8 ± 0.6	1403.8 ± 0.6	1394.4 ± 0.6	–	–	–
CCCCCCCCCCCC [dodecane] + CCCC[N+]1(C)CCCC1.O=S(=O)([N-]S(=O)(=O)C(F)(F)F)C(F)(F)F	–	–	–	–	–	105 ± 7.2	93.8 ± 6.4	83 ± 5.7
CC(C)OC(C)C [diisopropyl ether] + CCC[N+]1(C)CCCC1.O=S(=O)([N-]S(=O)(=O)C(F)(F)F)C(F)(F)F	–	–	–	–	–	5.88 ± 0.4	5.75 ± 0.39	5.53 ± 0.38
CCCCO [butan-1-ol] + CCCC[N+]1(C)CCCC1.O=S(=O)([N-]S(=O)(=O)C(F)(F)F)C(F)(F)F	–	–	–	–	–	2.59 ± 0.18	2.32 ± 0.16	2.08 ± 0.14
C1COCCO1 [1,4-dioxane] + CCCC[N+]1(C)CCCC1.O=S(=O)([N-]S(=O)(=O)C(F)(F)F)C(F)(F)F	–	–	–	–	–	0.71 ± 0.05	0.72 ± 0.05	0.72 ± 0.05
CCCCCCC [heptane] + CCC[N+]1(C)CCCC1.O=S(=O)([N-]S(=O)(=O)C(F)(F)F)C(F)(F)F	–	–	–	–	–	24 ± 1.6	23.1 ± 1.6	22.3 ± 1.5
CC(C)OC(C)C [diisopropyl ether] + CCCC[N+]1(C)CCCC1.O=S(=O)([N-]S(=O)(=O)C(F)(F)F)C(F)(F)F	–	–	–	–	–	5.19 ± 0.35	5.28 ± 0.36	5.4 ± 0.37
ClCCl [dichloromethane] + CCCC[N+]1(C)CCCC1.O=S(=O)([N-]S(=O)(=O)C(F)(F)F)C(F)(F)F	–	–	–	–	–	0.66 ± 0.05	0.7 ± 0.05	0.73 ± 0.05
Cc1cccc(C)c1 [1,3-dimethylbenzene] + CCCC[N+]1(C)CCCC1.O=S(=O)([N-]S(=O)(=O)C(F)(F)F)C(F)(F)F	–	–	–	–	–	1.78 ± 0.12	1.8 ± 0.12	1.83 ± 0.12
CC1CCCCC1 [methylcyclohexane] + CCC[N+]1(C)CCCC1.O=S(=O)([N-]S(=O)(=O)C(F)(F)F)C(F)(F)F	–	–	–	–	–	14.1 ± 0.96	12.8 ± 0.87	12.2 ± 0.83
Cc1ccccc1C [1,2-dimethylbenzene] + CCCC[N+]1(C)CCCC1.O=S(=O)([N-]S(=O)(=O)C(F)(F)F)C(F)(F)F	–	–	–	–	–	1.61 ± 0.11	1.64 ± 0.11	1.66 ± 0.11
CC(C)CO [2-methyl-1-propanol] + CCC[N+]1(C)CCCC1.O=S(=O)([N-]S(=O)(=O)C(F)(F)F)C(F)(F)F	–	–	–	–	–	2.51 ± 0.17	2.29 ± 0.16	2.1 ± 0.14
CC1CCCCC1 [methylcyclohexane] + CCCC[N+]1(C)CCCC1.O=S(=O)([N-]S(=O)(=O)C(F)(F)F)C(F)(F)F	–	–	–	–	–	11.5 ± 0.79	10.7 ± 0.73	10.1 ± 0.69
C#CCCCCC [1-heptyne] + CCCC[N+]1(C)CCCC1.O=S(=O)([N-]S(=O)(=O)C(F)(F)F)C(F)(F)F	–	–	–	–	–	3.98 ± 0.27	3.98 ± 0.27	3.94 ± 0.27
CCCCCCCCCC [decane] + CCCC[N+]1(C)CCCC1.O=S(=O)([N-]S(=O)(=O)C(F)(F)F)C(F)(F)F	–	–	–	–	–	54.3 ± 3.7	49 ± 3.4	44.2 ± 3
CCCC(C)=O [pentan-2-one] + CCCC[N+]1(C)CCCC1.O=S(=O)([N-]S(=O)(=O)C(F)(F)F)C(F)(F)F	–	–	–	–	–	0.8 ± 0.05	0.81 ± 0.05	0.82 ± 0.05
CCCCO [butan-1-ol] + CCC[N+]1(C)CCCC1.O=S(=O)([N-]S(=O)(=O)C(F)(F)F)C(F)(F)F	–	–	–	–	–	2.79 ± 0.19	2.35 ± 0.16	2.27 ± 0.15
C1CCCCCC1 [cycloheptane] + CCC[N+]1(C)CCCC1.O=S(=O)([N-]S(=O)(=O)C(F)(F)F)C(F)(F)F	–	–	–	–	–	29.1 ± 2	43 ± 2.9	54.7 ± 3.8

Structure (SMILES)	mass density ([1]; 293.15 K) [kg/m3]	mass density ([1]; 303.15 K) [kg/m3]	mass density ([1]; 313.15 K) [kg/m3]	mass density ([1]; 323.15 K) [kg/m3]	mass density ([1]; 333.15 K) [kg/m3]	activity coefficient ([2]; 323.15 K)	activity coefficient ([2]; 333.15 K)	activity coefficient ([2]; 343.15 K)
CC1CCCC1 [methylcyclopentane] + CCC[N+]1(C)CCCC1.O=S(=O)([N-]S(=O)(=O)C(F)(F)F)C(F)(F)F	–	–	–	–	–	10.3 ± 0.7	10.3 ± 0.7	9.16 ± 0.63
C=CCCCC [hex-1-ene] + CCC[N+]1(C)CCCC1.O=S(=O)([N-]S(=O)(=O)C(F)(F)F)C(F)(F)F	–	–	–	–	–	7.96 ± 0.54	7.75 ± 0.53	7.65 ± 0.52
CCN(CC)CC [triethylamine] + CCCC[N+]1(C)CCCC1.O=S(=O)([N-]S(=O)(=O)C(F)(F)F)C(F)(F)F	–	–	–	–	–	7.07 ± 0.48	7.07 ± 0.48	7.09 ± 0.48
C#CCCCCC [1-heptyne] + CCC[N+]1(C)CCCC1.O=S(=O)([N-]S(=O)(=O)C(F)(F)F)C(F)(F)F	–	–	–	–	–	4.52 ± 0.31	4.52 ± 0.31	4.51 ± 0.31
Cc1cccc(C)c1 [1,3-dimethylbenzene] + CCC[N+]1(C)CCCC1.O=S(=O)([N-]S(=O)(=O)C(F)(F)F)C(F)(F)F	–	–	–	–	–	1.97 ± 0.13	1.99 ± 0.14	2.05 ± 0.14
CCCCCCCCC [nonane] + CCCC[N+]1(C)CCCC1.O=S(=O)([N-]S(=O)(=O)C(F)(F)F)C(F)(F)F	–	–	–	–	–	42.7 ± 2.9	38.3 ± 2.6	34.7 ± 2.4
ClCCl [dichloromethane] + CCC[N+]1(C)CCCC1.O=S(=O)([N-]S(=O)(=O)C(F)(F)F)C(F)(F)F	–	–	–	–	–	0.66 ± 0.05	0.72 ± 0.05	0.78 ± 0.05
ClC(Cl)(Cl)Cl [tetrachloromethane] + CCCC[N+]1(C)CCCC1.O=S(=O)([N-]S(=O)(=O)C(F)(F)F)C(F)(F)F	–	–	–	–	–	2.44 ± 0.17	2.45 ± 0.17	2.47 ± 0.17
C1CCCCC1 [cyclohexane] + CCCC[N+]1(C)CCCC1.O=S(=O)([N-]S(=O)(=O)C(F)(F)F)C(F)(F)F	–	–	–	–	–	8.74 ± 0.6	7.96 ± 0.54	7.59 ± 0.52
ClC(Cl)Cl [trichloromethane] + CCCC[N+]1(C)CCCC1.O=S(=O)([N-]S(=O)(=O)C(F)(F)F)C(F)(F)F	–	–	–	–	–	0.83 ± 0.05	0.86 ± 0.06	0.88 ± 0.06
CO [methanol] + CCCC[N+]1(C)CCCC1.O=S(=O)([N-]S(=O)(=O)C(F)(F)F)C(F)(F)F	–	–	–	–	–	1.4 ± 0.09	1.28 ± 0.08	1.18 ± 0.08
CCC(C)=O [butanone] + CCCC[N+]1(C)CCCC1.O=S(=O)([N-]S(=O)(=O)C(F)(F)F)C(F)(F)F	–	–	–	–	–	0.54 ± 0.04	0.5 ± 0.04	0.46 ± 0.04
CC(C)CO [2-methyl-1-propanol] + CCCC[N+]1(C)CCCC1.O=S(=O)([N-]S(=O)(=O)C(F)(F)F)C(F)(F)F	–	–	–	–	–	2.37 ± 0.16	2.12 ± 0.14	1.92 ± 0.13
Cc1ccccc1C [1,2-dimethylbenzene] + CCC[N+]1(C)CCCC1.O=S(=O)([N-]S(=O)(=O)C(F)(F)F)C(F)(F)F	–	–	–	–	–	1.78 ± 0.12	1.83 ± 0.12	1.87 ± 0.13
CCN(CC)CC [triethylamine] + CCC[N+]1(C)CCCC1.O=S(=O)([N-]S(=O)(=O)C(F)(F)F)C(F)(F)F	–	–	–	–	–	8.98 ± 0.61	8.1 ± 0.55	7.19 ± 0.49
CCCC(C)=O [pentan-2-one] + CCC[N+]1(C)CCCC1.O=S(=O)([N-]S(=O)(=O)C(F)(F)F)C(F)(F)F	–	–	–	–	–	0.88 ± 0.06	0.88 ± 0.06	0.91 ± 0.06
CC(C)O [propan-2-ol] + CCC[N+]1(C)CCCC1.O=S(=O)([N-]S(=O)(=O)C(F)(F)F)C(F)(F)F	–	–	–	–	–	1.92 ± 0.13	1.79 ± 0.12	1.62 ± 0.11
CCO [ethanol] + CCC[N+]1(C)CCCC1.O=S(=O)([N-]S(=O)(=O)C(F)(F)F)C(F)(F)F	–	–	–	–	–	1.75 ± 0.12	1.57 ± 0.1	1.49 ± 0.1
